Holding throughout (format): ADME
Assay [1] deals with T1, Albumin (Homo sapiens, UniProt P02768). Nature of the assay: Binding affinity to human serum albumin by PAMPA method.
Assay [2] concerns the target T1, Albumin. The assay is described as follows: Binding affinity to 100 uM human serum albumin at 10 uM by PAMPA method.
Assay [3] addresses T1, Albumin. The assay is described as follows: Binding affinity to 100 uM human serum albumin at 50 uM by PAMPA method.
Assay [4] has as its target T1, Albumin. Nature of the assay: Binding affinity to 300 uM human serum albumin at 10 uM by PAMPA method.
Assay [5] concerns the target T1, Albumin. Nature of the assay: Binding affinity to 50 uM human serum albumin at 10 uM by PAMPA method.
Assay [6] addresses T1, Albumin. Nature of the assay: Binding affinity to 600 uM human serum albumin at 10 uM by PAMPA method.

Molecules are shown by their SMILES.

T1 sequence (P02768 whole entry): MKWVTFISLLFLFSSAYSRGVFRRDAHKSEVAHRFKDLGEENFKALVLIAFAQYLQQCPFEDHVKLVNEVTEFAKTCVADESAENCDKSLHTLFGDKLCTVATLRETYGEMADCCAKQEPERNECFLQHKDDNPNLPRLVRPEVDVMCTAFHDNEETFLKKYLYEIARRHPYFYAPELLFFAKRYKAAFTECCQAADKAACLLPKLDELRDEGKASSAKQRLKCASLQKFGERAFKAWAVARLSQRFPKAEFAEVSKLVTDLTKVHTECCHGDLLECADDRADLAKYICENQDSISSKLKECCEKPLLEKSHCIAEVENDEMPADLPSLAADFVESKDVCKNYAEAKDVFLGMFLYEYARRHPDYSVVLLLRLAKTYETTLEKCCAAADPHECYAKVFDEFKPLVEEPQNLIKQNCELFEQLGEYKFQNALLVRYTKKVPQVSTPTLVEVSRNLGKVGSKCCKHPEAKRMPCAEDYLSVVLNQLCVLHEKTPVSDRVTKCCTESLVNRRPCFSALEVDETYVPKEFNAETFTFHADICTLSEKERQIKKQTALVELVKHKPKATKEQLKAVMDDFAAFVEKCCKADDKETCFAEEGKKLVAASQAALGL

As to `CNCCCN1c2ccccc2CCc2ccccc21` [DESIPRAMINE], the Kd at Albumin [1] is 851 µM.
Regarding `CC(C)NCC(O)COc1cccc2ccccc12` (configuration not stated) [PROPRANOLOL], the Kd at Albumin [2] was 661 µM; on Albumin [3], 437 µM; at Albumin [4] it was 603 µM; on Albumin [5], 355 µM; at Albumin [6], 631 µM; on Albumin [1], 437 µM.
